Results reported in patent US20260285871A1, “Polymorphic Compounds and Uses Thereof” (TYRA BIOSCIENCES, INC., priority 2022, published 2026).

What was measured:
Format in all cases: physicochemical
[1] = Dynamic Vapor Sorption (DVS), moisture sorption/desorption; details: data not shown; for hygroscopicity suggested by vapor sorption data: DVS, 5% to 98% RH
Description: Dynamic Vapor Sorption (DVS): Moisture sorption/desorption data were collected on a DVS-intrinsic vapor sorption analyser (Surface Measurement Systems NA, Allentown, PA, USA) and operating with DVS-intrinsic control software (Version 1.0.5.1). Samples were not dried prior to analysis. Sorption and desorption data were collected over a range from 5% to 98% relative humidity (RH) via 10% RH increments under a nitrogen purge. The equilibrium criterion used for analysis was less than 0.005% weight change in 10 min with a maximum equilibration time of 3 h.

[2] = Storage of solid form at RT, form followed by XRPD; details: storage at RT for about one month
Protocol: X-Ray Powder Diffraction (XRPD) Data Collection Strategy: XRPD patterns of samples were recorded at room temperature on Aeris X-ray diffractometer (Almelo, The Netherlands) using Cu Kα radiation (λ=1.54 Å) at 40 kV, 15 mA passing through a Ni monochromater. Data were collected in a continuous scan mode with a step size of 0.02° and dwell time of 149 s over an angular range of 3° to 40° 2θ. The sample was loaded on a zero-background holder and gently pressed by a clean glass slide to ensure coplanarity of the sample surface with the surface of the holder. Obtained diffractograms were analysed and plotted with HighScore Plus software (V 5.0; Almelo, The Netherlands).

[3] = Crystallization (polymorph) studies of compound 2: fast, reactive, slurry at 40° C., anti-solvent; solids analysed by XRPD; details: solvent 1,2 Prop Diol
Protocol: Forms I-XIII of compound 2 were prepared according to one of the crystallization methods described below, e.g., fast crystallization; reactive crystallization; slurry crystallization or anti-solvent crystallization.
Fast Crystallization Method: In a typical experiment, compound 2 (ca. 10 mg) was dissolved in minimum quantity the stated solvent while heating to 80° C. The resulted solution was allowed to cool down to room temperature. […]
Reactive Crystallization: Benzene sulfonic acid (BSA) was dissolved in THF to prepare a stock solution and used for all the reactive crystallization experiments. Compound A free base (ca. 30 mg) was dissolved in minimum quantity the stated solvent while heating to 80° C. The resultant compound A free base solutions were allowed to cooldown to RT and added one equivalent of BSA stock solution. It was observed that most of the reactions yielded precipitate. […]
Slurry Crystallization at 40° C. using Form I of compound 2: In a typical experiment, compound 2 (ca. 100 mg) was suspended in minimum quantity the stated solvent while heating to 40° C. The resulted slurries were allowed to stir at 40° C. for three days.
Anti-Solvent Crystallization: In a typical experiment, compound 2 (ca. 100 mg) was dissolved in solubilizing solvent. To that solution 200 μL anti-solvent was added slowly. These iterations were continued until the precipitation observed or maximum solvent quantity of ~15 mL.

## C[C@@H](Oc1ccc2[nH]nc(-c3ccc(N4CC5(C4)CN(S(C)(=O)=O)C5)nc3)c2c1)c1c(Cl)cncc1Cl [Form II of Compound 5]
[1]
  hygroscopicity suggested by vapor sorption data: moderately hygroscopic

## C[C@@H](Oc1ccc2[nH]nc(-c3ccc(N4CC5(C4)CN(S(C)(=O)=O)C5)nc3)c2c1)c1c(Cl)cncc1Cl.O=P(O)(O)O [Form I of Compound 23]
[1]
  hygroscopicity suggested by vapor sorption data: hygroscopic

## C[C@@H](Oc1ccc2[nH]nc(-c3ccc(N4CC5(C4)CN(S(C)(=O)=O)C5)nc3)c2c1)c1c(Cl)cncc1Cl.O=C(O)/C=C/C(=O)O (stereo in doubt) [Form II of Compound 3]
[1]
  hygroscopicity suggested by vapor sorption data: moderately hygroscopic

## C[C@@H](Oc1ccc2[nH]nc(-c3ccc(N4CC5(C4)CN(S(C)(=O)=O)C5)nc3)c2c1)c1c(Cl)cncc1Cl.O=C(O)C(O)C(O)C(=O)O [Form I of Compound 25]
[1]
  hygroscopicity suggested by vapor sorption data: moderately hygroscopic

## C[C@@H](Oc1ccc2[nH]nc(-c3ccc(N4CC5(C4)CN(S(C)(=O)=O)C5)nc3)c2c1)c1c(Cl)cncc1Cl.O=C(O)CC(=O)O [Form I of Compound 26]
[1]
  hygroscopicity suggested by vapor sorption data: moderately hygroscopic
  weight loss observed in the DVS data: about 2.1%

## C[C@@H](Oc1ccc2[nH]nc(-c3ccc(N4CC5(C4)CN(S(C)(=O)=O)C5)nc3)c2c1)c1c(Cl)cncc1Cl [Form I of Compound 24]
[1]
  stability suggested by vapor sorption / DVS data: instability
  weight loss observed in the DVS data: about 3.27%

## C[C@@H](Oc1ccc2[nH]nc(-c3ccc(N4CC5(C4)CN(S(C)(=O)=O)C5)nc3)c2c1)c1c(Cl)cncc1Cl.O=S(=O)(O)c1ccccc1 [Form VIII of compound 2]
[2]
  solid form change during storage: transformed to Form I of compound 2

## Br.C[C@@H](Oc1ccc2[nH]nc(-c3ccc(N4CC5(C4)CN(S(C)(=O)=O)C5)nc3)c2c1)c1c(Cl)cncc1Cl [Form II of Compound 12]
[1]
  hygroscopicity suggested by vapor sorption data: moderately hygroscopic

## C[C@@H](Oc1ccc2[nH]nc(-c3ccc(N4CC5(C4)CN(S(C)(=O)=O)C5)nc3)c2c1)c1c(Cl)cncc1Cl.O=S(=O)(O)c1ccccc1 [Compound 2]
[3]; anti-solvent 4-Me-2-Pentanone
  Anti-Solvent Crystallization Result: Form-X
[3]; anti-solvent DEE
  Anti-Solvent Crystallization Result: Form-XI
[3]; anti-solvent EtOAc
  Anti-Solvent Crystallization Result: Form-XI
[3]; anti-solvent T-butyl-methyl-ether
  Anti-Solvent Crystallization Result: Form-XI

## C[C@@H](Oc1ccc2[nH]nc(-c3ccc(N4CC5(C4)CN(S(C)(=O)=O)C5)nc3)c2c1)c1c(Cl)cncc1Cl.Cl [Form II of Compound 1]
[1]
  hygroscopicity suggested by vapor sorption data: moderately hygroscopic
